Patent US10172884B2, “Dialysis solutions comprising organic esters of phosphoric acid” (Fresenius Medical Care Deutschland GmbH, priority 2015, dated 2019)

Test: modified rapid controlled precipitation method (controlled degassing of CO2 until precipitation)
Type: physicochemical
Source text: The “Rapid-Controlled Precipitation Method” or the “Critical pH Method” can be used for determining the stability of the dialysis solution such as is described in F. Hui et al: Journal European of Water Quality (Journal European d'Hydrologie) T.33 Fasc. 1 (2002).
The results described within the framework of this disclosure were obtained by a modified rapid controlled precipitation method. The experiment setup comprises six 3-neck flasks (Carousel-6 from Radleys) which are open toward the top to ensure a uniform degassing of CO2 from the solution. Furthermore, this setup allows an in-line measurement of e.g. the pH and the conductivity as well as the simultaneous heating of the flasks.
The basic principle of the method used comprises the pH of the mixed solution or of the dialysis solution being slowly raised by controlled degassing of CO2 until the dialysis solution reaches a metastable state and ultimately precipitates.
A pH measurement, a particle count or a turbidity measurement can be used, for example, as methods for detecting the precipitation. […] The measured curves which can be obtained using these methods are compared in FIG. 3. […]
The pHmax and the precipitation products of the different solutions are compiled in Table 4 shown in the following. The values were all determined at 40° C. using the “rapid degassing” method. […]

O=P(O)(O)OCC(O)CO (centres unmarked) [glycerol orthophosphate]
Precipitation product (40° C., rapid degassing method): no phosphates low in solubility are formed | stability of the solution (pHmax and tG values) (T=40° C., result in words, FIGS. 10, 12, 13, 15): almost the same stabilizing effect as the addition of 0.1 mmol/L orthophosphate
